Source: paper PMC8395335, “Serotonergic–Muscarinic Interaction within the Prefrontal Cortex as a Novel Target to Reverse Schizophrenia-Related Cognitive Symptoms” (International Journal of Molecular Sciences, 2021)

Experiments:
[1] = test system: MK-801-treated mice; test: Novel object recognition (NOR) test, MK-801-induced deficits; assay type: in vivo
Procedure: (§1) Drugs were administered on two different schedules: (1) acute administration of compounds 45 min (WAY100635—5-HT1A antagonist) or 30 min (VU0357017, VU152100, VU0238429, and F15599) before MK-801 (also administered once 30 min before the test in Y-maze or T1 in NOR test); and (2) prolonged administration (once per day for 7 consecutive days) of the compounds and MK-801 with the last administration 24 h before the test (NOR test) or at the day of the test (Y-maze). […] Schedules of administration are presented graphically in Figure 2. The subeffective doses of the compounds for acute administration in the NOR test were chosen based on our previous research (see: [22, 23]) while dose-dependent studies of the activity of the compounds in reversing disruptions in the Y-maze or after prolonged administration along with MK-801 were performed within this study. Different vehicles were used throughout the study: (1) 0.9% NaCl and (2) 10% Tween 80. Vehicles were administered to all animals (e.g., control mice and MK-801-treated mice) on the same schedule as drugs were administered to the appropriate drug-treated groups of mice. Neither solvent exerted effects on animal behavior.
(§2) Male Albino Swiss mice (Charles River, Sulzfeld, Germany) weighing 20–25 g at the beginning of the experiments were used in the studies. The animals were housed in a room with a 12:12 h light-dark cycle at a temperature of 22 ± 1 °C with food and water available ad libitum. The experimental groups consisted of 8–10 animals. All drugs were administered intraperitoneally (i.p.) at a volume of 10 mL/kg. The behavioral experiments were performed by an observer who was blinded to the treatment. The procedures were conducted in accordance with the European Communities Council Directive of 22 September 2010 (2010/63/EU) and Polish legislation acts concerning animal experimentation and were approved by the II Local Ethics Committee by the Maj Institute of Pharmacology, Polish Academy of Sciences in Krakow (15/2020, 240/2020).
(§3) In acute experiments, the tested compounds (alone or in combination) were administered 30 min before MK-801 (0.3 mg/kg), which was administered 30 min before the test or training trial (T1) in the NOR test. In chronic experiments, the tested compounds (alone or in combination) and MK-801 were administered for seven days. Behavioral tests were performed on the eighth day.
The NOR test was performed as described previously. Briefly, the habituation, training and test trial were carried out in a dark room in a black, plastic rectangular arena illuminated with a 355 lux bulb. During the habituation trial, the animals were allowed to explore the arena in the absence of objects (10 min/day for 2 days). The next day, the training (T1) and test (T2) trials were performed. Throughout T1, mice were allowed to freely explore two identical objects (5 min), one of which was subsequently replaced by a novel object in T2 (1 h later, 5 min of exploration). Time spent exploring (i.e., sniffing or touching) the familiar (Tfamiliar) or novel object (Tnovel) was measured by a trained observer, and then the recognition index was calculated for each mouse [(Tnovel − Tfamiliar)/(Tfamiliar + Tnovel)] × 100.

[2] = test system: MK-801-treated mice; test: Y-maze test (spontaneous alternations), MK-801-induced deficits; assay type: in vivo
Procedure: as §1, §2, §3
The Y-maze was performed using the methods described by Miedel et al. and Kraeuter et al. with minor modifications. A black, wooden Y-shaped apparatus with equal length arms (labeled A, B, or C) spaced 120 apart was used in the behavioral experiment. Visual clues were placed inside the maze and mounted to the back wall of each arm. The experiment was performed in a well-lit room. The mice were placed in the same starting arm and were allowed to freely explore the maze for 8 min. After each trial, the maze was wiped clean. The sequence and the number of arm entries were recorded to calculate the percentage of spontaneous alternations using the following formula: [(Number of alternations)/(Total arm entries − 2)] × 100. An arm entry was scored if the animal entered the arm with all paws. Consecutive entries into three distinct arms were scored as an alternation (e.g., ACB, but not ACA) in which sequences could overlap (e.g., ACBACABAC represents […] alternations).

[3] = Pharmacokinetic analysis of drug-drug interactions (plasma, FC concentration, FC penetration); assay type: in vivo, mice; details: Albino Swiss, mouse, in vivo, 30 min
Procedure: The experiment was performed using the methods described by Bridges et al. and in our previous studies.
The pharmacokinetic analysis was performed in the blood and prefrontal cortex. […] Plasma and FC samples were stored at −80 °C until analysis.
The investigated compounds were administered alone at the top dose (F15599—0.1 mg/kg, VU0357017—5 mg/kg, VU0152100—1 mg/kg, and VU0238429—5 mg/kg) and in combinations of muscarinic ligands at subeffective doses with F15599 at subeffective dose (F15599 + VU0357017 0.05 and 0.15 mg/kg, F15599 + VU0152100 0.05 and 0.05 mg/kg, F15599 + VU0238429 0.05 and 1 mg/kg). The FC and blood were collected on the eighth day, 30 min after administration. All mice were parallelly treated with MK-801 (0.3 mg/kg) for seven consecutive days.
On the day of analysis, frozen whole mouse brain tissues were weighed and homogenized in 1:2 (w/v) volumes of ice-cold acetonitrile containing 0.1% FA and the internal standard mix. Samples were homogenized using a Metal Bead Lysing Matrix, vortexed for 1 min, shaken for 20 min at 4 °C on Thermomixer C, and centrifuged at 14,000× g rpm for 20 min at 4 °C. Finally, 50 µL of supernatant were diluted with 0.1% FA in water (1:1, v/v) and analyzed using HPLC/MS/MS.
The sample extraction of plasma (20 μL) was performed after spiking with the internal standard mix using the protein precipitation method and three volumes of ice-cold acetonitrile containing 0.1% formic acid. The extract was vortexed, incubated on ice for 20 min and centrifuged at 14,000× g rpm for 20 min at 4 °C. The supernatant was diluted with 0.1% FA in water (1:1, v/v) and analyzed by means of HPLC/MS/MS using a QTRAP 4500 (AB Sciex) mass spectrometer in positive ion mode in Multiple Reaction Monitoring (MRM screening) coupled with UHPLC (NEXERA XR, Shimadzu). Chromatographic separation was achieved on a Synergi 4 µm Fusion-RP 80 A 50 × 2 mm (Phenomenex) column at a flow rate of 0.2 mL/min. The gradient program was as follows: 20% B (0.3 min), 20–100% B (1.7 min), 100% B (3 min), 100–20% B (0.1 min), 20% B (2 min), solvent A (95:5:0.1% formic acid in water:methanol) and solvent B (methanol containing 0.1% formic acid). The column temperature was set to 40 °C. Analyst software was used to control the instrument and collect data. The ion transfer tube temperature was 300 °C. The spray voltage, collision energy, declastering potential, and gas parameters were optimized to achieve the maximal response using the test compounds. Selected reaction monitoring was carried out using the transition parameters. Calibration curves were constructed, and a linear response was obtained in the range of 0.25–500 ng/mL (VU357017, VU0152100, and F15599) and 1.25–2500 ng/mL (VU0238429) by spiking known amounts of each compound in blank brain homogenates and plasma. For VU0357017 and F15599 IS VU0152100 was used as internal standard. Sample concentration of internal standard was 100 ng/mL for IS VU0238429 and 50 ng/mL for IS VU0152100.
Brain penetration was calculated as FC/plasma ratio × 100%.

**Q.** For `C[C@]12N[C@H](Cc3ccccc31)c1ccccc12` [MK-801], which “Disruption in the recognition index (NOR)” value ([1]; acute MK-801 (0.3 mg/kg) 30 min before T1) is on record?
**A.** The value was “induced typical disruption”.

**Q.** What about the “Disruption in the recognition index (NOR)” value ([1]; seven days of MK-801 administration) of the same compound?
**A.** The value was “induced a typical disruption”.

**Q.** And the “Disruption of spontaneous alternations in the Y-maze” value ([2]; acute MK-801 (0.3 mg/kg) 30 min before test)?
**A.** The value was “induced typical disruption”.

**Q.** And the “Disruptive effect on animals' behavior in Y-maze” value ([2]; prolonged MK-801, test performed 24 h after the last administration)?
**A.** Its value is “lack of MK-801 disruptive effect”.

**Q.** With `COc1ccc(CNC(=O)c2sc3nc(C)cc(C)c3c2N)cc1` [VU0152100] as the compound, how does the “Reversal of MK-801-induced deficits in the NOR test (recognition index)” value (shortened to “Reversal … (recognition index)”) ([1]; 7 days with MK-801, 0.1 mg/kg i.p.) read?
**A.** Its value is “activity of VU0152100 was observed”.

**Q.** And the “Reversal … (recognition index)” value ([1]; 7 days with MK-801, 1 mg/kg)?
**A.** Its value is “activity of VU0152100 was observed”.

**Q.** What about the “Reversal … (recognition index)” value ([1]; 7 days with MK-801, dose of 0.05) of the same compound?
**A.** The value was “ineffective”.

**Q.** What about the “Reversal of MK-801-induced disruptions in NOR test by combined administration” value ([1]; 7 days, F15599 0.05 mg/kg with VU0152100 0.05 mg/kg (subeffective doses)) of the same compound?
**A.** The value was “reversed”.

**Q.** And the “Effect of top dose on MK-801-induced deficits in the NOR test” value ([1]; acute, 1 mg/kg i.p., alone)?
**A.** The value was “pro-cognitive effect”.

**Q.** What about the “Effect of combined administration on MK-801-induced memory deficits in the NOR test” value ([1]; acute, subeffective doses, F15599 with VU0152100) of the same compound?
**A.** Its value is “no effect”.

**Q.** And the “Reversal of MK-801-induced disruptions in Y-maze by combined administration” value ([2]; 7 days, F15599 0.025 mg/kg with VU0152100 0.05 mg/kg (subeffective doses))?
**A.** Its value is “did not reverse”.

**Q.** What about the “Reversal of MK-801-induced reduction in spontaneous alternations in the Y-maze” value ([2]; acute, 0.1-5 mg/kg i.p.) of the same compound?
**A.** Its value is “No efficacy”.

**Q.** What about the “Effect of combined administration on spontaneous alternations in the Y-maze test” value ([2]; acute, F15599 0.1 mg/kg with VU0152100 1 mg/kg, MK-801-treated) of the same compound?
**A.** Its value is “no effect”.

**Q.** What about the “Increase of FC penetration after prolonged administration compared to acute” value [3] of the same compound?
**A.** Its value is “ca. 50%”.

**Q.** What about the “Increase of FC penetration when administered concomitantly with F15599” value [3] of the same compound?
**A.** The value was “more than 50%”.

**Q.** Which “Effect of WAY100635 on the pro-cognitive effect of muscarinic ligand in the NOR test” value (from here on “Effect of WAY100635”) ([1]; acute, WAY100635 0.1 mg/kg 15 min before VU0152100 (1 mg/kg)) does the source give for `COc1ccccc1N1CCN(CCN(C(=O)C2CCCCC2)c2ccccn2)CC1` [WAY100635] here?
**A.** The value was “reversed the pro-cognitive effect”.

**Q.** What about the “Effect of WAY100635” value ([1]; acute, WAY100635 0.1 mg/kg 15 min before VU0238429 (5 mg/kg)) of the same compound?
**A.** The value was “reversed the pro-cognitive effect”.

**Q.** What about the “Effect of WAY100635” value ([1]; acute, WAY100635 0.1 mg/kg 15 min before VU0357017 (5 mg/kg)) of the same compound?
**A.** Its value is “reversed the pro-cognitive effect”.
